The results in this text go back to ChEMBL document CHEMBL1921776, “Synthesis and biological activity of acetyl-protected hydroxybenzyl diethyl phosphates (EHBP) as potential chemotherapeutic agents” (Bioorg Med Chem Lett, 2011).

Calls of active or inactive are those of the source. The rule behind the calls is not given here.

Experiment [1] has as its system HT-29. Kind of experiment: Cell cycle arrest in human HT-29 cells assessed as increase in G2/M phase after 24 hrs using propidium iodide staining-based flow cytometry. In kind it is functional. A general note: A flow cytometer gives signals particle by particle.
Experiment [2] has as its system Jurkat. Kind of experiment: Cytotoxicity against human Jurkat cells assessed as growth inhibition after 24 hrs by MTT assay. In kind it is functional, cell-based.
The subject of experiment [3] is HT-29. Kind of experiment: Cell cycle arrest in human HT-29 cells assessed as increase in S phase at 100 to 300 uM after 24 hrs using propidium iodide staining-based flow cytometry. In kind it is functional.
Experiment [4] deals with HT-29. The experiment can be described thus: Cytotoxicity against human HT-29 cells assessed as growth inhibition after 24 hrs by MTT assay. In kind it is functional, cell-based. As to conditions: HT-29, 24 h.
Experiment [5] has as its system HT-29. The experiment can be described thus: Induction of apoptosis in human HT-29 cells at 100 uM after 24 hrs using annexin V-FITC and propidium iodide staining by flow cytometry. In kind it is functional.
In experiment [6] the test system is HT-29. The experiment can be described thus: Cell cycle arrest in human HT-29 cells assessed as reduction in G0/G1 phase after 24 hrs using propidium iodide staining-based flow cytometry. The format is functional.
Experiment [7] relates to MCF7. The experiment can be described thus: Cytotoxicity against human MCF7 cells assessed as growth inhibition after 24 hrs by MTT assay. In kind it is functional, cell-based. Particulars: MCF7, 24 h. A general note: Tetrazolium assays rely on reduction of a dye to a coloured formazan, in cell work by metabolically active cells.
The test system of experiment [8] is HT-29. Kind of experiment: Cell cycle arrest in human HT-29 cells assessed as reduction in G0/G1 phase at 100 to 300 uM after 24 hrs using propidium iodide staining-based flow cytometry. The format is functional.
Experiment [9] deals with HT-29. The experiment can be described thus: Cell cycle arrest in human HT-29 cells assessed as increase in G2/M phase at 100 to 300 uM after 24 hrs using propidium iodide staining-based flow cytometry. In kind it is functional.
Experiment [10] relates to BXPC-3. The experiment can be described thus: Cytotoxicity against human BxPC3 cells assessed as growth inhibition after 24 hrs by MTT assay. In kind it is functional, cell-based. As to conditions: BXPC-3, 24 h.
For experiment [11], the system named is HT-29. The experiment can be described thus: Antiproliferative activity against human HT-29 cells assessed as decrease of PCNA expression after 24 hrs by ELISA. The format is functional, cell-based.
The test system of experiment [12] is HT-29. Kind of experiment: Induction of apoptosis in human HT-29 cells at 300 uM after 24 hrs using annexin V-FITC and propidium iodide staining by flow cytometry. The format is functional.
Experiment [13] has as its system HCT-15. Kind of experiment: Ratio of p-NO-ASA IC50 to compound IC50 for human HCT15 cells assessed as growth inhibition after 48 hrs by trypan blue assay. The format is functional.
Experiment [14] has as its system HT-29. The experiment can be described thus: Cell cycle arrest in human HT-29 cells assessed as accumulation of cells at G2/M phase at 3 uM after 24 hrs using propidium iodide staining-based flow cytometry (reference value: 5.8%). In kind it is functional.
Experiment [15] relates to HT-29. Kind of experiment: Ratio of p-NO-ASA IC50 to compound IC50 for human HT-29 cells assessed as growth inhibition after 48 hrs by trypan blue assay. The format is functional.
Experiment [16] has as its system BXPC-3. Kind of experiment: Ratio of p-NO-ASA IC50 to compound IC50 for human BxPC3 cells assessed as growth inhibition after 48 hrs by trypan blue assay. In kind it is functional.
Experiment [17] relates to HT-29. Kind of experiment: Cell cycle arrest in human HT-29 cells assessed as accumulation of cells at G2/M phase at 10 uM after 24 hrs using propidium iodide staining-based flow cytometry (reference value: 5.8%). The format is functional.
The subject of experiment [18] is HT-29. Kind of experiment: Cell cycle arrest in human HT-29 cells assessed as accumulation of cells at S phase at 3 uM after 24 hrs using propidium iodide staining-based flow cytometry (reference value: 19.4%). In kind it is functional.
Experiment [19] deals with HT-29. The experiment can be described thus: Cell cycle arrest in human HT-29 cells assessed as accumulation of cells at G0/G1 phase at 3 uM after 24 hrs using propidium iodide staining-based flow cytometry (reference value: 74.8%). The format is functional.
The subject of experiment [20] is SCC-25. The experiment can be described thus: Ratio of p-NO-ASA IC50 to compound IC50 for human SCC25 cells assessed as growth inhibition after 48 hrs by trypan blue assay. The format is functional.
The test system of experiment [21] is HT-29. The experiment can be described thus: Induction of apoptosis in human HT-29 cells at 50 uM after 24 hrs using annexin V-FITC and propidium iodide staining by flow cytometry. The format is functional.
Experiment [22] has as its system HT-29. The experiment can be described thus: Cell cycle arrest in human HT-29 cells assessed as accumulation of cells at S phase at 10 uM after 24 hrs using propidium iodide staining-based flow cytometry (reference value: 19.4%). The format is functional.
In experiment [23] the test system is HT-29. The experiment can be described thus: Induction of apoptosis in human HT-29 cells at 10 uM after 24 hrs using annexin V-FITC and propidium iodide staining by flow cytometry. The format is functional.
Experiment [24] concerns HT-29. The experiment can be described thus: Cell cycle arrest in human HT-29 cells assessed as accumulation of cells at G0/G1 phase at 10 uM after 24 hrs using propidium iodide staining-based flow cytometry (reference value: 74.8%). In kind it is functional.
The subject of experiment [25] is HT-29. Kind of experiment: Induction of apoptosis in human HT-29 cells after 24 hrs using annexin V-FITC and propidium iodide staining by flow cytometry. The format is functional, cell-based.
Experiment [26] concerns LNCaP. The experiment can be described thus: Ratio of p-NO-ASA IC50 to compound IC50 for human LNCAP cells assessed as growth inhibition after 48 hrs by trypan blue assay. The format is functional.
The subject of experiment [27] is A549. Kind of experiment: Ratio of p-NO-ASA IC50 to compound IC50 for human A549 cells assessed as growth inhibition after 48 hrs by trypan blue assay. The format is functional.
The test system of experiment [28] is MIA PaCa-2. The experiment can be described thus: Ratio of p-NO-ASA IC50 to compound IC50 for human MIAPaCa2 cells assessed as growth inhibition after 48 hrs by trypan blue assay. The format is functional.
Experiment [29] deals with MIA PaCa-2. The experiment can be described thus: Cytotoxicity against human MIAPaCa2 cells assessed as growth inhibition after 48 hrs by trypan blue assay. The format is functional, cell-based. Particulars: MIA PaCa-2, 48 h.
Experiment [30] relates to BXPC-3. The experiment can be described thus: Cytotoxicity against human BxPC3 cells assessed as growth inhibition after 48 hrs by trypan blue assay. In kind it is functional, cell-based. As to conditions: BXPC-3, 48 h.
Experiment [31] concerns HCT-15. Kind of experiment: Cytotoxicity against human HCT15 cells assessed as growth inhibition after 48 hrs by trypan blue assay. Particulars: HCT-15, 48 h. The format is functional, cell-based.
The subject of experiment [32] is SCC-25. The experiment can be described thus: Cytotoxicity against human SCC25 cells assessed as growth inhibition after 48 hrs by trypan blue assay. The format is functional, cell-based. Particulars: SCC-25, 48 h.
The subject of experiment [33] is LNCaP. The experiment can be described thus: Cytotoxicity against human LNCAP cells assessed as growth inhibition after 48 hrs by trypan blue assay. The format is functional, cell-based.
Experiment [34] deals with HT-29. The experiment can be described thus: Cytotoxicity against human HT-29 cells assessed as growth inhibition after 48 hrs by trypan blue assay. Particulars: HT-29, 48 h. The format is functional, cell-based.
Experiment [35] has as its system A549. The experiment can be described thus: Cytotoxicity against human A549 cells assessed as growth inhibition after 48 hrs by trypan blue assay. In kind it is functional, cell-based. Particulars: A549, 48 h.

For the compound `CCOP(=O)(OCC)OCc1cccc(OC(C)=O)c1`, the result in experiment [1], in [3], in [8] and in [9] was Active. Moreover, the IC50 – broadly, the concentration at which inhibition is half-maximal – in experiment [2] was 451 µM; in experiment [4], 273 µM; in experiment [7] it was 214 µM; in experiment [10], 162 µM. For the same compound, the Activity in [5] is 19%; in experiment [6], “Dose-dependent effect”; in experiment [11], “Dose-dependent effect”; in [12] it was 79%.
Regarding `CCOP(=O)(OCC)OCc1ccc(OC(C)=O)c(C)c1`, the IC50 in [2] was determined as 0.29 µM; in experiment [4], 0.31 µM; in experiment [7], 0.32 µM; in [10] it was 0.28 µM.
The corresponding values for `CCOP(=O)(OCC)OCc1ccccc1OC(C)=O` are 110 µM, 82.7 µM, 62.7 µM and 155 µM.
Consider `CCOP(=O)(OCC)OCc1ccc(OC(C)=O)c(Cl)c1`, for which the IC50 in experiment [2] was determined as 0.68 µM; in experiment [4], 1.3 µM; in [7], 0.7 µM; in [10], 0.65 µM.
As for `CCOP(=O)(OCC)OCc1ccc(OC(C)=O)cc1`, the “Ratio IC50” value in [13], in experiment [15], in experiment [16], in experiment [20], in experiment [26] and in [27] was 17 in each case. The “Ratio IC50” value in experiment [28] was found to be 17. For the same compound, the Activity in experiment [14] was 9.6%; in experiment [17], 16.3%; in experiment [18] it was 38.2%; in experiment [19], 53.2%; in [6], “Dose-dependent effect”; in experiment [21], 79%. Further, the Activity is 40.8% in [22]; 25% in experiment [23]; 42.9% in experiment [24]; “Dose-dependent effect” in experiment [25]; “Dose-dependent effect” in [11]. Further, in [1], the outcome was Active. For the same compound, the IC50 stood at 0.65 µM in experiment [2], 0.82 µM in [4], 0.67 µM in [7] and 0.67 µM in experiment [10].
Turning to `CC(=O)Oc1ccccc1C(=O)Oc1ccc(CO[N+](=O)[O-])cc1`, the IC50 in [29], in [30], in experiment [31], in [32], in experiment [33] and in experiment [34] was 10 µM each time. Besides, the IC50 in [35] was determined as 10 µM.
